# According to BindingDB's records for doi:10.1021/jm00087a007 (Uppsala University, 1992):
# Experiments:
# [1] = Compound was evaluated for its binding affinity against muscarinic acetylcholine receptor M2 in guinea pig heart using (-)-[3H]-QNB as radioligand
# [2] = Compound was evaluated for its binding affinity against Muscarinic acetylcholine receptor M1 in guinea pig cerebral cortex using (-)-[3H]-QNB as radioligand
# [3] = Compound was evaluated for its binding affinity against muscarinic acetylcholine receptor M2 in guinea pig heart using (-)-[3H]-QNB as radioligand; remark: listed apart in the source
# [4] = Compound was evaluated for its binding affinity against Muscarinic acetylcholine receptor M1 in guinea pig cerebral cortex using (-)-[3H]-QNB as radioligand; remark: listed apart in the source
# [5] = Compound was evaluated for its binding affinity against muscarinic acetylcholine receptor M2 in guinea pig heart using (-)-[3H]-QNB as radioligand; remark: listed apart in the source
Compound,Ki [1],Ki [2],Ki [3],Ki [4],Ki [5]
C[C@@H]1CCC2(CN3CCC2CC3)O1 (stereo partly specified),> 25 µM,20 µM,,,
C[C@@H]1CC2(CO1)CN1CCC2CC1 (stereo partly specified),,,> 20 µM,6.3 µM,
C[C@H]1CC2(CO1)CN1CCC2CC1 (stereo partly specified),> 20 µM,6.5 µM,,,
CC1(C)OCC2(CN3CCC2CC3)O1 (stereo unspecified),,,,9.3 µM,30 µM
C[C@H]1CCC2(CN3CCC2CC3)O1 (stereo partly specified),,,15 µM,15 µM,
C1OCC2(CN3CCC2CC3)O1 (stereo unspecified),,,,19 µM,50 µM
"C[C@@H]1OCC2(CN3CCC2CC3)O1 (stereo partly drawn) [(2'S)-2'-methylspiro[4-azabicyclo[2.2.2]octane-2,4'-[1,3]dioxolane]]",,,> 21 µM,6.3 µM,
"C[C@H]1OCC2(CN3CCC2CC3)O1 (stereo partly drawn) [(2'S)-2'-methylspiro[4-azabicyclo[2.2.2]octane-2,4'-[1,3]dioxolane]]",,,,2.9 µM,9.7 µM
